Source: patent US11406694B2, “Vaccine comprising drug and parasite administration” (priority 2016, dated 2022)

Assays:
P. falciparum 7G8 = experiment: Blood stage P. falciparum infection of human volunteers under doxycycline, parasitaemia by qPCR; format: in vivo; conditions: two volunteers, 3×10^6 P. falciparum pRBC, 100 mg doxycycline once daily for 21 days
Experimental: FIG. 13: Persistence of P. falciparum 7G8 in volunteers receiving doxycycline chemoprophylaxis. […] Volunteers received 3×106 pRBCs on D0, followed by doxycycline treatment administered orally (100 mg/day) from D0 to D20.
We have also started human experiments. Initially we have given two volunteers a blood stage infection initiated with 3×10^6 magnet-purified P. falciparum trophozoite-parasitized human red cells (pRBC). At the same time, volunteers were administered 100 mg doxycycline once daily for 21 days, although this could be changed to twice daily. A controlled release form of doxycycline (such as Atridox® comprising doxycycline hyclate) will also be tested.
Parasite concentration is determined whereby the log10 of each known concentration of a standard concentration range is plotted against the quantification cycle of Cq values of the test samples in a linear regression model (y=mx+b) using Biorad CFX manager 2.1 software.

Plasmodium parasite = experiment: Blood-stage infection of mice under daily doxycycline treatment (course of infection during infection/drug cure); format: in vivo
Experimental: The work described herein relates to giving mice and humans a blood stage malaria infection and daily doses of oral (human) or intraperitoneal (mice) doxycycline as a delayed death agent. This cycle can be repeated and we have given mice 1 or 3 cycles of infection/drug cure (IDC) with doxycycline.
Mice (BALB/c or C57/B6) received varying doses of Plasmodium parasite (10^5-10^7 trophozoite parasitised red blood cells; pRBC), administered via intravenous injection (200 μL). Mice were subsequently started on doxycycline treatment (doxycycline hydrate (Sigma) dissolved in 1× phosphate buffered saline, 50 mg/kg administered in ˜100 μL volume via intraperitoneal injection) approximately 1-2 hours post infection. Mice received treatment every day for 7 days. Subsequent infection and drug cures (IDCs) were administered 2 weeks from the day of last treatment (or 3 weeks between infections). Mice were challenged 4 weeks from the day of last treatment of the last round of IDC (or 5 weeks from last infection).
Blood smears were performed on D1, 2, 4 and 6 post infection during IDC 1, 2 and 3.

How did the “illness of the volunteers” value (P. falciparum 7G8) turn out when C[C@H]1c2cccc(O)c2C(=O)C2=C(O)[C@]3(O)C(=O)C(C(N)=O)=C(O)[C@@H](N(C)C)[C@@H]3[C@@H](O)[C@@H]21 [doxycycline] was run?
The value was “did not become ill”.

And the “time the infection takes to clear” value (Plasmodium parasite; 10^5-10^7 pRBC i.v., doxycycline 50 mg/kg i.p. daily for 7 days)?
Its value is “approximately 4 days”.

And the “condition of the mice during the infection” value (Plasmodium parasite; pRBC i.v. with doxycycline 50 mg/kg i.p. daily for 7 days)?
Its value is “remain well”.
